Assay results from PubChem BioAssay (NCI).
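All cell lines were grown in 96-well plates and treated with compound for 48 hours. TGI is the concentration that stops growth completely.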

Assays:
Assay in all cases: NCI-60 cell line screen, 48 h
A549 NSCLC = tested on: A549 NSCLC
NCI-H522 lung = tested on: NCI-H522 lung
HS 578T breast = tested on: HS 578T breast
OVCAR-5 ovarian = tested on: OVCAR-5 ovarian
NCI-H23 lung = tested on: NCI-H23 lung
NCI-H226 lung = tested on: NCI-H226 lung
NCI/ADR-RES ovarian = tested on: NCI/ADR-RES ovarian
786-0 renal = tested on: 786-0 renal
EKVX NSCLC = tested on: EKVX NSCLC
UACC-257 melanoma = tested on: UACC-257 melanoma
SK-OV-3 ovarian = tested on: SK-OV-3 ovarian
SK-MEL-2 melanoma = tested on: SK-MEL-2 melanoma
PC-3 prostate = tested on: PC-3 prostate
CAKI-1 renal = tested on: CAKI-1 renal
OVCAR-3 ovarian = tested on: OVCAR-3 ovarian
HCC-2998 colon = tested on: HCC-2998 colon
SK-MEL-5 melanoma = tested on: SK-MEL-5 melanoma
SN12C renal = tested on: SN12C renal
LOX IMVI melanoma = tested on: LOX IMVI melanoma
A498 renal = tested on: A498 renal

Structure (SMILES) | TGI (A549 NSCLC) [µM] | TGI (NCI-H522 lung) [µM] | TGI (HS 578T breast) [µM] | TGI (OVCAR-5 ovarian) [µM] | TGI (NCI-H23 lung) [µM] | TGI (NCI-H226 lung) [µM] | TGI (NCI/ADR-RES ovarian) [µM] | TGI (786-0 renal) [µM] | TGI (EKVX NSCLC) [µM] | TGI (UACC-257 melanoma) [µM] | TGI (SK-OV-3 ovarian) [µM] | TGI (SK-MEL-2 melanoma) [µM] | TGI (PC-3 prostate) [µM] | TGI (CAKI-1 renal) [µM] | TGI (OVCAR-3 ovarian) [µM] | TGI (HCC-2998 colon) [µM] | TGI (SK-MEL-5 melanoma) [µM] | TGI (SN12C renal) [µM] | TGI (LOX IMVI melanoma) [µM] | TGI (A498 renal) [µM]
COC(=O)CCC(C)C1CCC2C3C(C[C@H](OC(C)=O)[C@]12C)[C@@]1(C)CCC2(C[C@H]1C[C@H]3OC(C)=O)OOC1(CC[C@]3(C)C4C[C@H](OC(C)=O)[C@]5(C)C(C(C)CCC(=O)OC)CCC5C4[C@H](OC(C)=O)C[C@@H]3C1)OO2 (stereo partly specified) | > 100 | > 100 | > 100 | > 100 | > 100 | > 100 | > 100 | > 100 | > 100 | > 100 | > 100 | > 100 | > 100 | > 100 | > 100 | > 100 | > 100 | > 100 | > 100 | 
CC(C)(C)c1cc2c(O)c(c1)Cc1cc(C(C)(C)C)cc(c1O)Cc1cc(C(C)(C)C)cc(c1O)Cc1cc(C(C)(C)C)cc(c1O)Cc1cc(C(C)(C)C)cc(c1O)Cc1cc(C(C)(C)C)cc(c1O)Cc1cc(C(C)(C)C)cc(c1O)Cc1cc(C(C)(C)C)cc(c1O)C2 | > 50 | > 50 | > 50 | > 50 | > 50 | > 50 | > 50 | > 50 | > 50 | > 50 | > 50 | > 50 | > 50 | > 50 | > 50 | > 50 | > 50 | > 50 |  | > 50
CSc1ccc(/C=C2\N=C(c3ccccc3)N(c3nc4cc(C)c(C)cc4s3)C2=O)cc1 | 89.7 |  | 92.1 | 67.9 |  |  | > 100 | 61.6 | 85.9 | > 100 | > 100 | 34.1 | 49.3 | > 100 | 77.4 | 82.4 | 84.5 | 72.4 | 44.7 | 
COc1cc2c(cc1OC)C(=O)/C(=C/c1cc(OC)c(OC)c(OC)c1)C2 |  | 51 | > 100 | > 100 | > 100 | > 100 | > 100 |  |  |  | > 100 | > 100 | > 100 | > 100 | > 100 |  | > 100 | > 100 |  | > 100
O=c1c2cc(Cl)cc(Cl)c2oc2nc3n(c(=O)c12)CCCS3 | > 100 | 81.6 | > 100 | > 100 | > 100 | > 100 | > 100 | > 100 | > 100 | > 100 | > 100 | > 100 | > 100 | > 100 | > 100 | > 100 | > 100 | > 100 |  | > 100
Cc1nnc(N)nc1/C=C/c1c(O)ccc2ccccc12 | > 100 |  | 85 | 78.7 | > 100 | 44.5 | > 100 | > 100 | 36 | > 100 | > 100 | 35.5 | 64.1 | > 100 |  | 45.2 | 94.4 | > 100 | > 100 | 47.1
FC(F)(Sc1ncc[nH]1)c1nc2ccccc2o1 | > 100 | > 100 | > 100 | > 100 | > 100 | > 100 | > 100 | > 100 |  | > 100 | > 100 | > 100 | > 100 | > 100 | > 100 | > 100 | > 100 | > 100 |  | > 100
CSc1ncc2c(n1)sc1c(=O)n(-c3ccccc3)cnc12 | > 100 | > 100 | > 100 | > 100 | > 100 | > 100 | > 100 | > 100 |  | > 100 | > 100 | > 100 | > 100 | > 100 | > 100 | > 100 | > 100 | > 100 | > 100 | > 100
O=C(c1ccc(Cl)cc1)N(C(=S)OCc1ccccn1)c1ccccc1 |  |  | > 100 | > 100 | > 100 | > 100 | > 100 | > 100 | 84.4 | > 100 | > 100 | > 100 | > 100 | > 100 | > 100 |  | > 100 | > 100 | > 100 | > 100
COc1ccccc1/C=C1\NC(=S)N(/C=C2\C(=O)Oc3ccccc3C2=O)C1=O | > 100 | > 100 | > 100 | > 100 | > 100 | > 100 | > 100 | > 100 | > 100 | > 100 | > 100 | > 100 | > 100 | > 100 | > 100 | > 100 | 78.7 | > 100 | > 100 | 
NC12CCC(CC1=O)C2 (stereo unspecified) | > 100 |  | > 100 | > 100 | > 100 | > 100 | > 100 |  | > 100 | > 100 | > 100 | > 100 | > 100 |  | > 100 | > 100 | > 100 | > 100 | > 100 | 
O=c1cn[nH]c(=S)n1/N=C/c1c[nH]c2ccccc12 | > 100 | > 100 | > 100 | > 100 |  |  | > 100 | > 100 | > 100 | > 100 | > 100 | > 100 | > 100 | > 100 | > 100 | > 100 | > 100 |  | 93.2 | > 100
